Source: patent US20240101544A1, “INHIBITORS OF QPCTL AND QPCT” (priority 2022, published 2024)

Key:
[1] = target: QPCT (rhQPCT) (Homo sapiens (Human), UniProt Q16769); test: QPCT Enzymatic Activity Assay (coupled-enzyme fluorescent assay, H-Gln-AMC substrate); assay type: biochemical; settings: rhQPCT 10-12 nM, 10 μM H-Gln-AMC; read-out: QPCT Inhibition IC50
Method in brief: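 Coupled assay: recombinant human QPCT converts H-Gln-AMC (10 μM final) to pyroglutamyl-AMC, 60 min at 37 °C, stopped by boiling; PGPEP-1 then releases AMC.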

[2] = target: T1, QPCTL (Homo sapiens (Human), UniProt Q9NXS2); test: Inhibition of Cellular QPCTL Activity - Imaging Assay, CC2C6 anti-CD47 staining of DLD-1 cells; assay type: cell-based; settings: 72 hours, CC2C6 anti-CD47 high-content imaging
Method: Inhibition of Cellular QPCTL Activity—Imaging Assay
The cells were incubated for 72 hours at 37° C. and 5% CO2. […] After primary antibody staining, the cells were fixed with 4% paraformaldehyde in the incubation buffer for 15 minutes at room temperature. […] Cells were analyzed on a ImageXpress Pico Automated Cell Imaging System (Molecular Devices) using 10× objective (3×3 fields).
Target sequence in this assay (Q9NXS2 whole entry): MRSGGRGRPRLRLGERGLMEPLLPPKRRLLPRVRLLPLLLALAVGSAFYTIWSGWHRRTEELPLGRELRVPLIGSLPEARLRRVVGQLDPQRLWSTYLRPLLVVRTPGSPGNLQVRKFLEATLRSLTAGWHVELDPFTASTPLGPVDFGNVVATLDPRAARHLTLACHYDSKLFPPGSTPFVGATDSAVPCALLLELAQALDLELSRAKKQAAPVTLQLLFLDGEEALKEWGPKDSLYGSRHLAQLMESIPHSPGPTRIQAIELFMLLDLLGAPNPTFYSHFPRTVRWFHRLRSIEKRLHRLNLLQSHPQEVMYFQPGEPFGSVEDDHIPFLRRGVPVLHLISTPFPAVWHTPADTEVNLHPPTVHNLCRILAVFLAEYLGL

[3] = target: T1, QPCTL; test: QPCTL Enzymatic Activity Assay (coupled-enzyme fluorescent assay, H-Gln-AMC substrate); assay type: biochemical; settings: recombinant truncated human QPCTL 10-12 nM, 10 μM H-Gln-AMC; read-out: QPCTL Inhibition IC50
Target sequence in this assay (Q9NXS2 53-382): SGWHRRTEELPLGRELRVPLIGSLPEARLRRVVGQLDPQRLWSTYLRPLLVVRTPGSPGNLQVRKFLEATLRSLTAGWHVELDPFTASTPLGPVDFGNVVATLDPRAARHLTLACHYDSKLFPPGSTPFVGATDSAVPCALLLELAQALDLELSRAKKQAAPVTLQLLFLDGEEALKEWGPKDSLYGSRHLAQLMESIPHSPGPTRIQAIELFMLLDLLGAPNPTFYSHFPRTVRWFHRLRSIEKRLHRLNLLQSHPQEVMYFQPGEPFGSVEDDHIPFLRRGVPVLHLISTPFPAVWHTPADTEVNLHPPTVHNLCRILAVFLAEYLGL

Sequence of QPCT (rhQPCT) (Q16769 29-361): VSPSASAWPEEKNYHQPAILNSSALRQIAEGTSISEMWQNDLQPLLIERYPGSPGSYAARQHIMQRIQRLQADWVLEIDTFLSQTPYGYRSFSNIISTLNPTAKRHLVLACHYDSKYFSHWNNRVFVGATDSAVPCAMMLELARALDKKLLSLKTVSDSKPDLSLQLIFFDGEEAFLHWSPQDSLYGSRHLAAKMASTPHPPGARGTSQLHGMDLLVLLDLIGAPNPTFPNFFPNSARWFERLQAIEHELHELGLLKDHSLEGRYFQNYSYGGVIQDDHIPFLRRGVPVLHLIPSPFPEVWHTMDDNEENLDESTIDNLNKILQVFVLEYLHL

Structure (SMILES) | IC50 [1] [nM] | IC50 [2] [nM] | IC50 [3] [nM]
Cn1cnnc1C1CCN(c2c(-c3ccc(F)nc3)ccc(OC3CC3)c2C#N)CC1 [Example 76, 6-cyclopropoxy-3-(6-fluoropyridin-3-yl)-2-(4-(4-methyl-4H-1,2,4-triazol-3-yl)piperidin-1-yl)benzonitrile] | < 100 | < 100 | < 100
Cn1cnnc1C1CCN(c2c(-c3ccc(F)nc3)ccc(OCC3CC3)c2C#N)CC1 [Example 77, 6-(cyclopropylmethoxy)-3-(6-fluoropyridin-3-yl)-2-(4-(4-methyl-4H-1,2,4-triazol-3-yl)piperidin-1-yl)benzonitrile] | < 100 | < 100 | < 100
Cn1cnnc1C1CCN(c2c(-c3ccc(F)nc3)ccc(N)c2C#N)CC1 [Example 78, 6-amino-3-(6-fluoropyridin-3-yl)-2-(4-(4-methyl-4H-1,2,4-triazol-3-yl)piperidin-1-yl)benzonitrile] | < 100 | < 100 | < 100
CN(C)C(=O)c1ccc(-c2ccc(F)nc2)c(N2CCC(c3nncn3C)CC2)c1C#N [Example 79, 2-cyano-4-(6-fluoropyridin-3-yl)-N,N-dimethyl-3-(4-(4-methyl-4H-1,2,4-triazol-3-yl)piperidin-1-yl)benzamide] | < 100 | 100 to 1000 | < 100
CN1CCN(c2ccc(-c3ccc(F)nc3)c(N3CCC(c4nncn4C)CC3)c2C#N)CC1 [Example 80, 3-(6-fluoropyridin-3-yl)-2-(4-(4-methyl-4H-1,2,4-triazol-3-yl)piperidin-1-yl)-6-(4-methylpiperazin-1-yl)benzonitrile] | < 100 | < 100 | < 100
Cn1cnnc1C1CCN(c2c(-c3ccc(F)nc3)ccc(NC3CC3)c2C#N)CC1 [Example 81, 6-(cyclopropylamino)-3-(6-fluoropyridin-3-yl)-2-(4-(4-methyl-4H-1,2,4-triazol-3-yl)piperidin-1-yl)benzonitrile] | < 100 | < 100 | < 100
CNCCOc1ccc(-c2ccc(F)nc2)c(N2CCC(c3nncn3C)CC2)c1C#N [Example 82, 3-(6-fluoropyridin-3-yl)-2-(4-(4-methyl-4H-1,2,4-triazol-3-yl)piperidin-1-yl)-6-(2-(methylamino)ethoxy)benzonitrile] | < 100 | 1000 to 10000 | < 100
CNCCN(C)c1ccc(-c2ccc(F)nc2)c(N2CCC(c3nncn3C)CC2)c1C#N [Example 83, 3-(6-fluoropyridin-3-yl)-6-(methyl(2-(methylamino)ethyl)amino)-2-(4-(4-methyl-4H-1,2,4-triazol-3-yl)piperidin-1-yl)benzonitrile] | < 100 | 1000 to 10000 | < 100
Cn1cnnc1C1CCN(c2c(-c3ccc(F)nc3)ccc(NS(C)(=O)=O)c2C#N)CC1 [Example 84, N-(2-cyano-4-(6-fluoropyridin-3-yl)-3-(4-(4-methyl-4H-1,2,4-triazol-3-yl)piperidin-1-yl)phenyl)methanesulfonamide] | < 100 | > 10000 | < 100
Cn1cnnc1C1CCN(c2c(-c3ccc(F)nc3)ccc(N3CCNCC3)c2C#N)CC1 [Example 85, 3-(6-fluoropyridin-3-yl)-2-(4-(4-methyl-4H-1,2,4-triazol-3-yl)piperidin-1-yl)-6-(piperazin-1-yl)benzonitrile] | < 100 | 1000 to 10000 | < 100
COCCOc1ccc(-c2ccc(F)nc2)c(N2CCC(c3nncn3C)CC2)c1C#N [Example 86, 3-(6-fluoropyridin-3-yl)-6-(2-methoxyethoxy)-2-(4-(4-methyl-4H-1,2,4-triazol-3-yl)piperidin-1-yl)benzonitrile] | < 100 | < 100 | < 100
Cn1cnnc1C1CCN(c2c(-c3ccc(F)nc3)ccc(N3CCOCC3)c2C#N)CC1 [Example 87, 3-(6-fluoropyridin-3-yl)-2-(4-(4-methyl-4H-1,2,4-triazol-3-yl)piperidin-1-yl)-6-morpholinobenzonitrile] | < 100 | < 100 | < 100
Cn1cnnc1C1CCN(c2c(-c3ccc(F)nc3)ccc(-c3c[nH]nc3N)c2C#N)CC1 [Example 92, 6-(3-amino-1H-pyrazol-4-yl)-3-(6-fluoropyridin-3-yl)-2-(4-(4-methyl-4H-1,2,4-triazol-3-yl)piperidin-1-yl)benzonitrile] | < 100 | 100 to 1000 | < 100
Cn1cnnc1C1CCN(c2c(C#N)cccc2-c2cnc3nccn3c2)CC1 [Example 93, 3-(imidazo[1,2-a]pyrimidin-6-yl)-2-(4-(4-methyl-4H-1,2,4-triazol-3-yl)piperidin-1-yl)benzonitrile] | < 100 | 100 to 1000 | < 100
COc1ccc(-c2cnc3nccn3c2)c(N2CCC(c3nncn3C)CC2)c1C#N [Example 94, 3-(imidazo[1,2-a]pyrimidin-6-yl)-6-methoxy-2-(4-(4-methyl-4H-1,2,4-triazol-3-yl)piperidin-1-yl)benzonitrile] | < 100 | 1000 to 10000 | < 100
Cn1cnnc1C1CCN(c2c(-c3ccc(F)nc3)ccc(N3CC(O)C3)c2C#N)CC1 [Example 95, 3-(6-fluoropyridin-3-yl)-6-(3-hydroxyazetidin-1-yl)-2-(4-(4-methyl-4H-1,2,4-triazol-3-yl)piperidin-1-yl)benzonitrile] | < 100 | < 100 | < 100
Cn1cnnc1C1CCN(c2c(C#N)cccc2-c2ccc(F)cc2)CC1 [Example 96, 4′-fluoro-2-(4-(4-methyl-4H-1,2,4-triazol-3-yl)piperidin-1-yl)-[1,1′-biphenyl]-3-carbonitrile] | < 100 | 1000 to 10000 | < 100
CC(=O)c1ccc(-c2ccc(F)nc2)c(N2CCC(c3nncn3C)CC2)c1C#N [Example 97, 6-acetyl-3-(6-fluoropyridin-3-yl)-2-(4-(4-methyl-4H-1,2,4-triazol-3-yl)piperidin-1-yl)benzonitrile] | < 100 | < 100 | < 100
Cn1cnnc1C1CCN(c2c(-c3ccc(F)nc3)ccc(-c3ccn(C4CC4)n3)c2C#N)CC1 [Example 98, 6-(1-cyclopropyl-1H-pyrazol-3-yl)-3-(6-fluoropyridin-3-yl)-2-(4-(4-methyl-4H-1,2,4-triazol-3-yl)piperidin-1-yl)benzonitrile] | < 100 | < 100 | < 100
Cn1cnnc1C1CCN(c2c(C#N)cc(C#N)cc2-c2ccc(F)nc2)CC1 [Example 100, 5-(6-fluoropyridin-3-yl)-4-(4-(4-methyl-4H-1,2,4-triazol-3-yl)piperidin-1-yl)isophthalonitrile] | < 100 | < 100 | < 100
Cn1cnnc1C1CCN(c2c(C#N)cc(S(C)(=O)=O)cc2-c2ccc(F)nc2)CC1 [Example 101, 3-(6-fluoropyridin-3-yl)-2-(4-(4-methyl-4H-1,2,4-triazol-3-yl)piperidin-1-yl)-5-(methylsulfonyl)benzonitrile] | < 100 | 1000 to 10000 | < 100
Cn1cnnc1C1CCN(c2c(-c3ccc(F)nc3)cc3cn[nH]c3c2C#N)CC1 [Example 105, 5-(6-fluoropyridin-3-yl)-6-(4-(4-methyl-4H-1,2,4-triazol-3-yl)piperidin-1-yl)-1H-indazole-7-carbonitrile] | < 100 | 100 to 1000 | < 100
Cn1cnnc1N1CCN(c2c(C#N)cccc2-c2ccc(F)nc2)CC1 [Example 106, 3-(6-fluoropyridin-3-yl)-2-(4-(4-methyl-4H-1,2,4-triazol-3-yl)piperazin-1-yl)benzonitrile] | < 100 | < 100 | < 100
COc1cc(F)c(-c2ccc(F)nc2)c(N2CCC(c3nncn3C)CC2)c1C#N [Example 107, 4-fluoro-3-(6-fluoropyridin-3-yl)-6-methoxy-2-(4-(4-methyl-4H-1,2,4-triazol-3-yl)piperidin-1-yl)benzonitrile] | < 100 | < 100 | < 100
Cn1cnnc1C1CCN(c2c(-c3ccc(F)nc3)ccc(C3COC3)c2C#N)CC1 [Example 108, 3-(6-fluoropyridin-3-yl)-2-(4-(4-methyl-4H-1,2,4-triazol-3-yl)piperidin-1-yl)-6-(oxetan-3-yl)benzonitrile] | < 100 | < 100 | < 100
Cn1cnnc1C1CCN(c2c(C#N)cccc2-c2ccc(O)c(C=O)c2)CC1 [Example 109, 3′-formyl-4′-hydroxy-2-(4-(4-methyl-4H-1,2,4-triazol-3-yl)piperidin-1-yl)-[1,1′-biphenyl]-3-carbonitrile] | < 100 | < 100 | < 100
Cn1cnnc1C1CCN(c2c(C#N)cccc2-c2cncc(Cl)c2)CC1 [Example 115, 3-(5-chloropyridin-3-yl)-2-(4-(4-methyl-4H-1,2,4-triazol-3-yl)piperidin-1-yl)benzonitrile] | < 100 | 100 to 1000 | < 100
Cn1cnnc1C1CCN(c2c(C#N)cccc2-c2cncc(B(O)O)c2)CC1 [Example 117, (5-(3-cyano-2-(4-(4-methyl-4H-1,2,4-triazol-3-yl)piperidin-1-yl)phenyl)pyridin-3-yl)boronic acid] | < 100 | < 100 | < 100
